# In patent publication US20240189257A1, “COMPOSITIONS AND METHODS FOR MANAGING NEPHROPATHY” (SAMI-SABINSA GROUP LIMITED, priority 2021, published 2024):
# System: High fat diet + STZ + DOCA (diabetic nephropathy)
# Experiment: Renal lipids (triglyceride, total cholesterol, free fatty acid, phospholipids) by automated analyzer in high fat diet + STZ + DOCA model
# Type: in vivo, rats
# Protocol: After 1 week of adaptive feeding, the rats were randomly divided into normal control and experimental groups. The experimental group received high-fat diet (consisting of 70% standard laboratory chow, 15% carbohydrates, 10% lard, and 5% yolk powder) to establish an insulin resistance model, while the normal control group receive standard chow. After 4 weeks of high-fat diet feeding, the experimental group rats were induced with diabetes by a single intraperitoneal injection of STZ (35 mg/kg, dissolved in 0.01 M sodium citrate buffer, pH 4.4), while the Normal group rats were injected with the same dose of citrate buffer. At the 7th day after STZ injection, the blood glucose levels of rats were measured to confirm the successful establishment of the model. Rats with blood glucose level ≥250 mg/dl is indicative of the establishment of the disease and selected for further pharmacological studies. All rats were fed their respective diets until the end of the study. Rats were also given 1% NaCl (salt) to drink and on day 28, 0.75 μg […] (DOCA) was subcutaneously infused. Blood pressure and urinary albumin were measured to establish renal hypertension.
# All the experimental rats were assigned to the specific treatment group and test drugs were administered orally once daily between 9:00 and 11:00 a.m., continuously for 12 weeks.
# At the end of the treatment, all rats were be housed in individual metabolic cages for 24 h to collect urine samples and then sacrifice. Urine samples were centrifuged at 4000×g for 5 min to separate the supernatant. Blood samples are acquired by a small puncture to retro orbital plexus and centrifuged at 4000×g for 10 min at 4° C. to separate the plasma for subsequent experiments. Serum was also separated from the blood for analysis in which anti-coagulant was not added. Thereafter, the kidneys were immediately harvested and weighed. The right kidneys were washed in ice-cold saline solution and fixed in 4% neutral formaldehyde solution for histological examination, whereas the renal cortex of the left kidneys was rinsed with cold isotonic saline and subsequently stored at −70° C. until biochemical estimations.
# Measurement of renal lipids viz. Triglyceride, Total cholesterol, Free Fatty Acid, Phospholipids was also done by automated analyzer.
# [1] = decrease against High fat diet + STZ + DOCA group
# [2] = renal lipids, high fat diet + STZ + DOCA rats, p.o. 12 weeks
smiles,measurement,setting,value
CN(C)C(=N)N=C(N)N [Metformin],"Free fatty acids, % decrease (↓)",[1],47.5%↓
same,"Phospholipids, % decrease (↓)",[1],55.2%↓
same,"Total Cholesterol, % decrease (↓)",[1],30%↓
same,"Triglycerides, % decrease (↓)",[1],17.2%↓
same,Free fatty acids,[2],25.34 ± 1.88 mg/mL
same,Phospholipids,[2],4.33 ± 0.023 mg/mL
same,Total Cholesterol,[2],40.33 ± 3.50 mg/dL
same,Triglycerides,[2],122.67 ± 3.56 mg/mL
